Measured values reported in patent US20200408775A1, “APPARATUS AND METHOD FOR MULTIPLEXED PROTEIN QUANTIFICATION” (BIOMOTIF AB, priority 2018, published 2020).

Tested on: Human Colon Carcinoma Cells HCT116
Test: Proteome changes in protein abundance upon drug treatment, 3-channel pI-multiplexing LC MS/MS
Type: cell-based
Conditions: 45 nM Methotrexate for 48 h vs 0.01% DMSO control, p<0.05, 570 proteins quantified, 3 biological replicates
Procedure: A three-channel isoelectric point-based multiplexing was applied for the analysis of proteome changes in protein abundance upon drug treatment, using the following procedure:
Human Colon Carcinoma Cells HCT116 were cultured at 37° C. with 5% CO2 in high-glucose Dulbecco's Modified Eagle's Medium (DMEM, Thermo Fisher Scientific) supplemented with 10% fetal bovine serum (Gibco) and 1% penicillin/streptomycin (Gibco). The cells were treated for 48 h with 45 nM Methotrexate in 0.01% dimethyl sulfoxide (DMSO). As a control experiment, cells were treated with 0.01% DMSO. The medium containing the drug (or 0.01% DMSO for the control) was replaced each 24 h by fresh medium. A total of 3 control samples and 3 treated samples were produced.
Cells (1 million cells per replicate sample) were washed twice with PBS (1 mL) and resuspended in 300 μL of lysis buffer (3% SDC, 20 mM EPPS, pH 8.5). The total protein concentration was measured using the BCA protein assay kit (Pierce) in accordance with the manufacturer's protocol. […]
6. Samples were analyzed together within MaxQuant (1% FDR and match between runs) and Quanty quantification software (1% FDR). Isoelectric point calculations were in-silico calculated as described in Pirmoradian M et al 2014. Proteins containing at least 1 peptide on each pI-channel were selected for quantification.

CN(Cc1cnc2nc(N)nc(N)c2n1)c1ccc(C(=O)N[C@@H](CCC(=O)O)C(=O)O)cc1 [Methotrexate]
number of proteins that demonstrated a statistical difference between the control and treated: 4
